The record followed here is patent publication US10676438B2, “KCNQ2-5 channel activator” (Ono Pharmaceutical Co., Ltd., priority 2014, dated 2020).

In general, solubility refers to how much of the substance goes into solution per volume. Read a high solubility as much dissolved substance. What is called IC20 is the point of the concentration-response curve where the effect stands at 20%. A higher IC20 goes with weaker potency.

Data set [1] can be described thus: Evaluation of stability in human liver microsome. The data set is classed as in vitro ADME. Conditions: 5 μmol/L. As for the experimental part: A test compound (10 mmol/L DMSO solution, 5 μL) was diluted with 50% acetonitrile aqueous solution (195 μL) to prepare 0.25 mmol/L solution.
To a reactor vessel which had been warmed to 37° C. in advance, 0.5 mg/mL of human liver microsome (Xenotech) and 245 μL of 0.1 M phosphate buffer solution (pH 7.4) including NADPH-Co-factor (BD Biosciences) were added, followed by preincubation for five minutes. Then, the above-mentioned test compound solution (5 μL) was added so as to start reaction (final concentration: 5 μmol/L). Immediately after the start, 20 μL was harvested and added to 180 μL of acetonitrile including an internal standard substance (warfarin) to stop the reaction. This solution (20 μL) was stirred with 180 μL of 50% acetonitrile aqueous solution on a plate equipped with a deproteinization filter. Then, the resulting mixture solution was subjected to suction filtration. The filtrate was adopted as a standard sample.
The above-mentioned reaction solution was incubated at 37° C. for 15 minutes, and 20 μL of the solution was added to 180 μL of cooled acetonitrile (including warfarin that is an internal standard substance) to stop the reaction. This solution (20 μL) was stirred with 180 μL of 50% acetonitrile aqueous solution on a plate equipped with a deproteinization filter, and then the resulting mixture solution was subjected to suction filtration. The filtrate was adopted as a reaction sample.
Residual rate (%) was obtained as follows: 1 μL of the sample solution was infused into LC-MS/MS (Discovery Max manufactured by Thermo Scientific), and a quotient obtained by dividing a peak area ratio of the reaction sample (peak area of test compound/peak area of internal standard substance) was divided by the peak area ratio of the standard sample was multiplied by 100.
A general note: Liver microsomes are a subcellular fraction often used to study metabolism.

Data set [2] can be described thus: Solubility test (DMSO precipitation method, Pharmacopoeia of Japan elution test second solution). Type of data set: physicochemical. Conditions: aqueous buffer, kinetic from dmso stock; Pharmacopoeia of Japan elution test second solution pH=6.8, room temperature, five hours; quantitation range 5 to 100 μM. The procedure:
A calibration curve solution was prepared by diluting a test substance (10 mM DMSO solution) with acetonitrile and adding acetonitrile including an internal standard substance (candesartan) so as to be 0.1, 0.4, and 2 μM.
Sample solution was prepared as follows: 5 μL of the compound of the present invention (10 mM DMSO solution) was added to 495 μL of the Pharmacopoeia of Japan elution test second solution (pH=6.8), and the resulting mixture was stirred at room temperature for five hours. Then, the solution was placed into a solubility filter plate and subjected to suction filtration. The filtrate (20 μL) was diluted with acetonitrile, followed by adding acetonitrile including an internal standard substance ([…]).
The calibration curve and sample solutions in the amount of 5 μL were infused into LC-MS/MS (Discovery Max manufactured by Thermo Scientific) and subjected to quantitation (quantitation range: 5 to 100 μM).

Data set [3] concerns the target Human KCNQ2/3 channel (Homo sapiens (Human), UniProt O43525+O43526). Put plainly: Opening action with respect to KCNQ2/3 channel by depolarization stimulation (thallium influx, FLIPR). The data set is classed as cell-based. Conditions: concentration giving 50% of maximum reaction of retigabine (10 μM); human KCNQ2/3 expression CHO-DHFR- cells; 5 mM potassium and 0.5 mM thallium; read-out: KCNQ2/3 ECrtg50. The procedure:
Human KCNQ2/3 expression cells (CHO-DHFR-cells) were seeded in each well of 384 well plate (collagen-coated, black, clear bottom) at 0.5×10^4 cells/50 μL per well, and cultured in a MEM ALPHA medium (containing 10 vol % inactivated (56° C., 30 min) Fetal Bovine Serum and 100 IU/mL Penicillin—100 μg/mL Streptomycin—2 mM L-Glutamine) at 37° C. in 5% CO2 for 18 to 24 hours. The medium in the plate was removed. Then, incubation (room temperature, 60 minutes, light-shielded) was carried out in a loading buffer (prepared by the method described in the manual of FluxOR Thallium Detection Kit (Invitrogen, F10016, F10017)). KCNQ2/3 channel opening action (thallium influx into cells) by the depolarization stimulation (5 mM potassium and 0.5 mM thallium) was measured by FLIPR TETRA (Molecular Devices). The compound of the present invention had been treated five minutes before the depolarization stimulation, and the reaction induced by the depolarization stimulation was measured over time for 180 seconds. The channel opening action of the compound of the present invention was evaluated based on the change amount of the fluorescence intensity from the time before the depolarization stimulation to the time after the passage of 180 seconds. Thus, the concentration (ECrtg50) satisfying 50% of the fluorescence intensity change of maximum reaction (at the time of 10 μM-treatment) of retigabine under this experiment condition was calculated.

Data set [4] deals with urinary bladder extracted from rat. The data set is described as follows: Relaxing action on urinary bladder extracted from rat (rat Magnus test). Particulars: concentration at which tension change rate is -20%; carbachol 1 μM-induced contraction of rat urinary bladder strips. The procedure:
Female Jcl Wistar rats (CLEA Japan, Inc., body weight in use: 170 to 200 g) were anesthetized by intraperitoneal administration of about 40 mg/kg of pentobarbital (Somnopentyl, Schering Plough Animal Health Corporation), and killed by bloodletting, followed by abdominal incision to extract the urinary bladder. Immediately, the extracted urinary bladder was immersed in ice-cooled Krebs buffer (Krebs Ringer bicarbonate buffer (Sigma-Aldlich Co.) containing sodium hydrogencarbonate (final concentration: 15 mM) and calcium chloride (final concentration: 2.5 mM)) which had been saturated with a mixed gas (95% O2, 5% CO2).
The urinary bladder bodies were cut in the longitudinal direction to prepare strip specimens (about 10×3 mm) on ice. Immediately, the prepared specimens were suspended in a Magnus tube with 500 mg of tension loaded. The tube was filled with Krebs buffer (37° C.) aerated with a mixed gas. Note here that specimens were prepared within 24 hours after extraction of the tissue.
When one hour or more had passed after the specimen was suspended, 2.5M KCl was added so that the final concentration became 100 mM, specimens showing contraction reaction were used.
Carbachol (a contraction-inducing substance) at the concentration of contraction of 1 μM was used to induce contraction. […] After the contraction reaction was stabilized, a physiological salt solution or the compound of the present invention was added in a cumulative manner from low concentration such that the final concentration became 1, 10, 100 nM, 1 and 10 μM.
The tension (mg) of the extracted urinary bladder was employed as an evaluation parameter. The tension was read by using analysis software WAVE THERMO 1000. Tension after addition of the contraction-inducing substance was set to 0%. The change rate of the tension after addition of the compound of the present invention relative to the tension after addition of the contraction-inducing substance was defined as tension change rate (%). The tension change rate (%) was adopted as an evaluation indicator. The tension change rate (%) is calculated from the following formula. Tension change rate (%)={Tension after addition of compound of the present invention and the like (mg)−Tension before addition of contraction-inducing substance (mg)}/{Tension after addition of contraction-inducing substance (mg)−Tension before addition of contraction-inducing substance (mg)}×100−100
The value at which the tension change rate (%) was −20% was calculated as IC20, and the value was adopted as an indicator of the relaxing action of the extracted urinary bladder.

Where [5] appears, read: human liver microsome 0.5 mg/mL, NADPH, 37° C., 15 minutes.

≈ marks a conversion by molar mass, not a printed value.

As for `CC(O)(c1cc(Cl)c(NC(=O)NCc2cc3cc(F)ccc3[nH]2)c(Cl)c1)C(F)(F)F` (stereo not shown) [Example 5 (13), 1-[2,6-dichloro-4-(1,1,1-trifluoro-2-hydroxy-2-propanyl)phenyl]-3-[(5-fluoro-1H-indole-2-yl)methyl]urea], the Residual rate in data set [1] (human, 15 min, pH 7.4) came to 75%. The molecule also gave a solubility at 5 h in data set [2] of 81 µM (≈ 37.6 µg/mL). Moreover, the EC50 in data set [3] came out at 600 nM.

For `CC(O)(c1cc(Cl)c(NC(=O)NC[C@@H]2CCCO2)c(Cl)c1)C(F)(F)F` (stereo partly drawn) [Example 5 (15), 1-[2,6-dichloro-4-(1,1,1-trifluoro-2-hydroxy-2-propanyl)phenyl]-3-[(2S)-tetrahydro-2-furanylmethyl]urea], in data set [1] (human, 15 min, pH 7.4), the Residual rate was determined as 97%. Also, the concentration in solution in data set [2] (solubility at 5 h) was 90 µM (≈ 36.1 µg/mL). For the same molecule, the EC50 in data set [3] came out at 2300 nM.

Molecule `CC(O)(c1cc(Cl)c(NC(=O)NCCC(F)(F)F)c(Cl)c1)C(F)(F)F` (stereo not shown) [Example 5 (19), 1-[2,6-dichloro-4-(1,1,1-trifluoro-2-hydroxy-2-propanyl)phenyl]-3-(3,3,3-trifluoropropyl)urea] displayed a Residual rate in data set [1] (human, 15 min, pH 7.4) of 100%. Moreover, the concentration in solution in data set [2] (solubility at 5 h) was 76 µM (≈ 31.4 µg/mL). In addition, the EC50 in data set [3] is 100 nM.

In data set [1] (human, 15 min, pH 7.4), `C[C@@H](NC(=O)Nc1c(Cl)cc(C(C)(O)C(F)(F)F)cc1Cl)C1CC1` (stereo partly drawn) [Example 5 (20), 1-[(1R)-1-cyclopropylethyl]-3-[2,6-dichloro-4-(1,1,1-trifluoro-2-hydroxy-2-propanyl)phenyl]urea] displayed a Residual rate of 91%. This molecule also showed a solubility at 5 h in data set [2] of 100 µM (≈ 38.5 µg/mL). For the same molecule, the EC50 in data set [3] turned out to be 500 nM.

On to `C[C@@](O)(c1cc(Cl)c(NC(=O)NCc2ccc(C#N)cc2)c(Cl)c1)C(F)(F)F` [Example 22 (15), 1-(4-cyanobenzyl)-3-{2,6-dichloro-4-[(2R)-1,1,1-trifluoro-2-hydroxy-2-propanyl]phenyl}urea], for which the Residual rate in data set [1] (human, 15 min, pH 7.4) is given as 93%. Besides, the EC50 in data set [3] was found to be 200 nM.

In the case of `C[C@@](O)(c1cc(Cl)c(NC(=O)NCc2ccc(Oc3ccc(F)cc3)cc2)c(Cl)c1)C(F)(F)F` [Example 22 (16), 1-{2,6-dichloro-4-[(2R)-1,1,1-trifluoro-2-hydroxy-2-propanyl]phenyl}-3-[4-(4-fluorophenoxyl)benzyl]urea], in data set [1] (human, 15 min, pH 7.4), the Residual rate turned out to be 94%. Further, in data set [3], the EC50 came to 4 nM.

`C[C@@](O)(c1cc(Cl)c(NC(=O)NCc2nc(C(F)(F)F)no2)c(Cl)c1)C(F)(F)F` [Example 23, 1-{2,6-dichloro-4-[(2R)-1,1,1-trifluoro-2-hydroxy-2-propanyl]phenyl}-3-{[3-(trifluoromethyl)-1,2,4-oxadiazole-5-yl]methyl}urea] showed a Residual rate in data set [1] (setting [5]) of 100%. In data set [4], this molecule returned an IC20 of 100 nM. Also, in data set [2], the solubility at 5 h is 46 µM (≈ 21.5 µg/mL). Also, the EC50 in data set [3] was 10 nM.

Regarding `C[C@](O)(c1cc(Cl)c(NC(=O)NCc2ccc(OCC(F)(F)F)nc2)c(Cl)c1)C(F)(F)F` [Example 25 (6), 1-{2,6-dichloro-4-[(2S)-1,1,1-trifluoro-2-hydroxy-2-propanyl]phenyl}-3-{[6-(2,2,2-trifluoroethoxy)-3-pyridinyl]methyl}urea], the Residual rate in data set [1] (human, 15 min, pH 7.4) was found to be 73%. The same molecule had a solubility at 5 h in data set [2] of 40 µM (≈ 20.2 µg/mL). The EC50 in data set [3] is 60 nM.

As for `C[C@](O)(c1cc(Cl)c(NC(=O)NCc2nc(C(F)(F)F)no2)c(Cl)c1)C(F)(F)F` [Example 26, 1-{2,6-dichloro-4-[(2S)-1,1,1-trifluoro-2-hydroxy-2-propanyl]phenyl}-3-{[3-(trifluoromethyl)-1,2,4-oxadiazole-5-yl]methyl}urea], the Residual rate in data set [1] (setting [5]) was 64%. In addition, in data set [4], it took 200 nM to reach the 20% level (IC20). Besides, in data set [2], the solubility at 5 h was found to be 59 µM (≈ 27.6 µg/mL). In addition, in data set [3], the EC50 was 40 nM.

`O=C(NCc1nc(C(F)(F)F)no1)Nc1c(Cl)cc([C@@H](O)C(F)(F)F)cc1Cl` [Example 32 (1), 1-{2,6-dichloro-4-[(1R)-2,2,2-trifluoro-1-hydroxyethyl]phenyl}-3-{[3-(trifluoromethyl)-1,2,4-oxadiazole-5-yl]methyl}urea]: it took 20 nM to reach the 20% level in data set [4] (IC20). This molecule also yielded a solubility at 5 h in data set [2] of 100 µM (≈ 45.3 µg/mL). Moreover, in data set [3], the EC50 amounted to 7 nM.

Molecule `O=C(NCc1nc(C(F)(F)F)no1)Nc1c(Cl)cc([C@H](O)C(F)(F)F)cc1Cl` [Example 35 (1), 1-{2,6-dichloro-4-[(1S)-2,2,2-trifluoro-1-hydroxyethyl]phenyl}-3-{[3-(trifluoromethyl)-1,2,4-oxadiazole-5-yl]methyl}urea] yielded a Residual rate in data set [1] (human, 15 min, pH 7.4) of 100%. Also, the IC20 in data set [4] stood at 20 nM. This molecule also showed a solubility at 5 h in data set [2] of 100 µM (≈ 45.3 µg/mL). For the same molecule, the EC50 in data set [3] is 8 nM.

`Cc1cc(C(O)C(F)(F)F)ccc1NC(=O)NCc1ccc(C(F)(F)F)cn1` (stereo not shown) [Example 60, 1-[2-methyl-4-(2,2,2-trifluoro-1-hydroxyethyl)phenyl]-3-{[5-(trifluoromethyl)-2-pyridinyl]methyl}urea] gave a Residual rate in data set [1] (human, 15 min, pH 7.4) of 98%. For the same molecule, the EC50 in data set [3] came to 1700 nM.

Consider `Cc1cc(C(O)C(F)(F)F)cc(Cl)c1NC(=O)NCc1ccc(C(F)(F)F)cn1` (stereo not shown) [Example 62, 1-[2-chloro-6-methyl-4-(2,2,2-trifluoro-1-hydroxyethyl)phenyl]-3-{[5-(trifluoromethyl)-2-pyridinyl]methyl}urea], for which the solubility at 5 h in data set [2] was 71 µM (≈ 31.4 µg/mL). Further, the EC50 in data set [3] came out at 60 nM.

With `CC(O)(c1cc(Cl)c(NC(=O)NCc2ccc(C(F)(F)F)cn2)c(Cl)c1)C(F)F` (stereo not shown) [Example 75, 1-[2,6-dichloro-4-(1,1-difluoro-2-hydroxy-2-propanyl)phenyl]-3-{[5-(trifluoromethyl)-2-pyridinyl]methyl}urea], the Residual rate in data set [1] (human, 15 min, pH 7.4) worked out at 100%. In addition, the EC50 in data set [3] was determined as 400 nM.
